Test results: patent US5731322A, “Octahydro-1H-pyrrolo[3,2-g]and [2,3-g]isoquinoline derivatives” (SmithKline Beecham S.p.A., priority 1993, dated 1998)
pIC50, pKi: −log10 of the molar value.

Assays:
[1] = target: T1, delta receptor (Mus musculus, UniProt P32300); experiment: Mouse vas deferens (MVD) bioassay, delta agonist/antagonist studies, electrically stimulated tissue; type: cell-based, mouse (CD-1); set-up: Vasa deferentia were obtained from CD-1 mice; from tissue; host or cells: vas deferens of CD-1 mice
T1 sequence (P32300 whole entry): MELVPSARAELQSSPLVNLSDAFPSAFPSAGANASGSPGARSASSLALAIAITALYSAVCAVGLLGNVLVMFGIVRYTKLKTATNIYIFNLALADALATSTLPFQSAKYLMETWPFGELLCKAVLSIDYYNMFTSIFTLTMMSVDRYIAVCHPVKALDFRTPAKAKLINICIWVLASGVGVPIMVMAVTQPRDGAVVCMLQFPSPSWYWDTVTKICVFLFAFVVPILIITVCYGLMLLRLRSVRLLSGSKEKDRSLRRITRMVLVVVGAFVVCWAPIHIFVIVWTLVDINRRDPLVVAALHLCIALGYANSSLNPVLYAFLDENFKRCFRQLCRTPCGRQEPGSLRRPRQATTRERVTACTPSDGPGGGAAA
Protocol: Vasa deferentia were obtained from CD-1 mice and were suspended in a Mg^2+ -free Krebs buffer at 37° C. For the delta agonist/antagonist studies, the tissues were electrically stimulated with pulse trains having the following parameters: train duration 50 ms, stimulus duration 2 ms, frequency of stimuli 50 Hz, maximal voltage 60-70 V, train frequency 0.1 Hz. Concentration response curves for each compounds were constructed cumulatively. Linear regression analysis and IC50 concentrations were evaluated according to Tallarida and Murray (Manual of Pharmacological Calculations, Springer Verlag N.Y., 1981).

[2] = target: T2, mu opioid receptor (Mus musculus, UniProt P42866); experiment: Opioid radioligand binding assay, mu ([3H]-DAMGO), mouse brain membranes; settings: ratio of Ki, mu ([3H]-DAMGO) vs delta
T2 construct: Mouse brain membranes were prepared as described by Kosterlitz; from tissue; host or cells: mouse brain membranes
T2 sequence (P42866 whole entry): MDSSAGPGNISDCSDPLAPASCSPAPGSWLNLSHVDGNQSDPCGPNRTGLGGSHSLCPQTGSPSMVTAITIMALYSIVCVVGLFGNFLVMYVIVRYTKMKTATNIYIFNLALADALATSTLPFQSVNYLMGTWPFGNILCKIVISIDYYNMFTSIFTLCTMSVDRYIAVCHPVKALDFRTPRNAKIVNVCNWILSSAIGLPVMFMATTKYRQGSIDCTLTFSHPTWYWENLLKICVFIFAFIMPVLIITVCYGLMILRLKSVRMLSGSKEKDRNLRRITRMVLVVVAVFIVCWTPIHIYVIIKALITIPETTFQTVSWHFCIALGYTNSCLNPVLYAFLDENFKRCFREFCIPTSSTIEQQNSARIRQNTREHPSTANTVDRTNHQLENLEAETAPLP
Protocol: (§1) Mouse brain membranes were prepared as described by Kosterlitz (Br. J. Pharmacol., 1981, 73, 939.). […] The binding of the mu ligand [^3 H]-DAMGO (Eur. J. Pharmacol., 1989, 166, 213) and of the kappa ligand [^3 H]-U69593 (Excerpta Medica, 1990, 211) were carried out at 0.5 nM. The non-specific binding was determined in presence of naloxone (10 μM) for all tritiated ligands. […] The IC50 obtained were used to calculate the inhibitory constants (Ki) accordingly to the Cheng and Prusoff relation (Biochem. Pharmacol., 1973, 22, 3099).

[3] = target: T1, delta receptor; experiment: Opioid radioligand binding assay, delta ([3H]-DADLE in presence of unlabelled DAMGO), mouse brain membranes; set-up: Mouse brain membranes were prepared as described by Kosterlitz; from tissue; host or cells: mouse brain membranes; settings: [3H]-DADLE 1.3 nM, 40 nM DAMGO
Protocol: as §1

[4] = target: T3, kappa opioid receptor (Mus musculus, UniProt P33534); experiment: Opioid radioligand binding assay, kappa ([3H]-U69593), mouse brain membranes; settings: ratio of Ki, kappa ([3H]-U69593) vs delta
T3 construct: Mouse brain membranes were prepared as described by Kosterlitz; from tissue; host or cells: mouse brain membranes
T3 sequence (P33534 whole entry): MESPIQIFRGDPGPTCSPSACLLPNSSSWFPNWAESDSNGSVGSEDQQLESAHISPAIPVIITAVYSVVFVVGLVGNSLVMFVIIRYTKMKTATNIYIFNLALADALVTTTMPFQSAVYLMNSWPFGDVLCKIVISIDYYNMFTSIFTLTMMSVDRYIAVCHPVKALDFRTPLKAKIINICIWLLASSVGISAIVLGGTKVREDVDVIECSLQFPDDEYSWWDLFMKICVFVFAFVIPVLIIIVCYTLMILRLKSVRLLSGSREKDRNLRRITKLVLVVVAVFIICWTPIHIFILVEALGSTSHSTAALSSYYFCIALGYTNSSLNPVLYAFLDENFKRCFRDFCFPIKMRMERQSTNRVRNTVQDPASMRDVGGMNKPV
Protocol: as §1

SMILES	Kb [1]	Ki mu/Ki delta [2]	pKi [3]	Ki kappa/Ki delta [4]	pIC50 ([1]; mouse vas deferens, delta agonist study, read-out: IC50 in the MVD preparation (delta agonists))
CCN(CC)C(=O)c1[nH]c2c(c1C)C[C@@H]1CN(C)CC[C@@]1(c1cccc(O)c1)C2.Cl (racemic) [Example 10, (±)-trans-2-Diethylaminocarbonyl-3,6-dimethyl-8a-(3-hydroxyphenyl)-4,4a,5,6,7,8,8a,9-octahydro-1H-pyrrolo[2,3-g]isoquinoline hydrochloride]	7 nM	45	8.67	403	
CCN1CC[C@@]2(c3cccc(O)c3)Cc3[nH]c(C(=O)N(CC)CC)c(C)c3C[C@@H]2C1.Cl (single isomer, unassigned) [Example 34, (-)-trans-2-Diethylaminocarbonyl-6-ethyl-8a-(3-hydroxyphenyl)-3-methyl-4,4a,5,6,7,8,8a,9-octahydro-1H-pyrrolo[2,3-g]isoquinoline hydrochloride]		110	9.14	1105	7.59
